Results taken from article PMC4594923, “Food Polyphenols Fail to Cause a Biologically Relevant Reduction of COX-2 Activity” (PLoS ONE, 2015).
Marks after values point to notes of the source that are not given here.

How the values were obtained:
[1] = tested on: arachidonic acid (AA) cascade; experiment: liver tissue oxylipin/PG levels in LPS induced sepsis in mice; type: in vivo, C57BL/6N mice; conditions: liver tissue 24 h after LPS treatment;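 also: male C57BL/6N mice pretreated i.p. with polyphenols at 100 mg/kg bw or vehicle before LPS, liver oxylipins measured by LC-MS after solid-phase extraction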
Source text: (§1) Twelve week old male C57BL/6N mice (Charles River, Sulzfeld, Germany) were used for all experiments. C57BL/6 male mice (H2^b, 11–13 weeks of age) were obtained from Charles River (Sulzfeld, Germany). Animals were cared for in accordance with the institution’s guidelines for experimental animals and with the guidelines of the American Physiological Society. […] Mice were monitored closely and if they appeared compromised (i.e. inactivity, no intake of food or water) after compound or LPS injection the experiment was terminated.
(§2) Oxylipin levels were analyzed in plasma and tissues by LC-MS following SPE extraction of 200 μl plasma or tissue homogenate (50 mg) on Chromabond C18 ec cartridges (Machery-Nagel, Düren, Germany) [19].
(§3) GraphPad Prism 5.0 (GraphPad Software, San Diego, USA) was used for data analysis, the fitting of dose response curves and calculation of the IC50 values. Statistical differences were determined by Dunnetts test (LPS vs. other groups).

[2] = tested on: arachidonic acid (AA) cascade; experiment: kidney tissue oxylipin/PG levels in LPS induced sepsis in mice; conditions: kidney tissue 24 h after LPS treatment, LPS +, mean;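 also: male C57BL/6N mice challenged with LPS, kidney taken 24 h later, oxylipins quantified by LC-MS after solid-phase extraction of tissue homogenate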
Source text: as §1, §2, §3

COX–2 protein = experiment: COX–2 expression in HCA–7 cells (Western Blot); type: cell-based, human; conditions: 24 h, vs. control
Procedure: HCA–7 cells were incubated with sub-cytotoxic concentrations of the polyphenols dissolved in Tris buffered DMEM medium. Cytotoxicity of the polyphenols was evaluated by the lactate dehydrogenase leakage test (Cyto-Tox-ONE, Promega Mannheim, Germany). After 24 h the supernatant was collected for LC-MS analysis and the cells were harvested to analyze the COX–2 expression by Western Blotting.

COX–2 = conditions: cited from earlier work

## O=c1c(-c2ccc(O)cc2)coc2cc(O)cc(O)c12 [Genistein, genistein]
[1]; mean
  4,5-DiHDPE concentration: 64 nM
  4-HDHA concentration: 14 nM
  5(6)-EpETrE concentration: 90 nM
  5,6-DiHETE concentration: < 0.30 nM
  5,6-DiHETrE concentration: 6.3 nM
  5-HEPE concentration: 2.7 nM
  5-HETE concentration: 2.7 nM
  5-iPF2α concentration: < 1.0 nM
  5-oxo-ETE concentration: 19 nM
  6-keto-PGF1α concentration: 74 nM
  7,8-DiHDPE concentration: 6.3 nM
  7-HDHA concentration: 4.4 nM
  8(9)-EpETE concentration: 2.5 nM
  8(9)-EpETrE concentration: 20 nM
  8,9-DiHETE concentration: 2.6 nM
  8,9-DiHETrE concentration: 12 nM
  8,15-DiHETE concentration: 0.88 nM
  8-HDHA concentration: 25^* nM
  8-HEPE concentration: 1.2 nM
  8-HETE concentration: 10 nM
  8-iPF2α concentration: 3.0^* nM
  9(10)-EpODE concentration: 12 nM
  9(10)-EpOME concentration: 130 nM
  9(10)-Epoxystearic acid concentration: 82 nM
  9,10,13-TriHOME concentration: 8.6^* nM
  9,10-DiHODE concentration: 7.6 nM
  9,10-DiHOME concentration: 82 nM
  9,10-Dihydroxystearic acid concentration: 64 nM
  9,12,13-TriHOME concentration: 64 nM
  9-HETE concentration: 6.2 nM
  9-HODE concentration: 550 nM
  9-HOTrE concentration: 9.9 nM
  9-oxo-ODE concentration: 160 nM
  10(11)-EpDPE concentration: 33^* nM
  10,11-DiHDPE concentration: 11 nM
  10-HDHA concentration: 7.6 nM
  11(12)-EpETE concentration: 5.1^† nM
  11(12)-EpETrE concentration: 51 nM
  11,12-DiHETE concentration: 2.9 nM
  11,12-DiHETrE concentration: 22 nM
  11-HDHA concentration: 7.0 nM
  11-HETE concentration: 35 nM
  12(13)-EpODE concentration: 5.7 nM
  12(13)-EpOME concentration: 110 nM
  12,13-DiHODE concentration: 5.7 nM
  12,13-DiHOME concentration: 210 nM
  12-HEPE concentration: 39 nM
  12-HETE concentration: 150 nM
  13(14)-EpDPE concentration: 27^* nM
  13,14-DiHDPE concentration: 15 nM
  13,14-dihydro-15-keto-PGE1 concentration: 0.61 nM
  13,14-dihydro-15-keto-PGF2α concentration: 8.2^* nM
  13-HDHA concentration: 16^† nM
  13-HODE concentration: 530 nM
  13-HOTrE concentration: 18 nM
  13-oxo-ODE concentration: 20 nM
  14(15)-EpETE concentration: 3.3 nM
  14(15)-EpETrE concentration: 44^* nM
  14,15-DiHETE concentration: 8.6 nM
  14,15-DiHETrE concentration: 62 nM
  14-HDHA concentration: 97 nM
  15(16)-EpODE concentration: 27 nM
  15(S)-HETrE concentration: 14 nM
  15,16-DiHODE concentration: 63 nM
  15-HEPE concentration: 4.0 nM
  15-HETE concentration: 40 nM
  15-oxo-ETE concentration: 5.8 nM
  16(17)-EpDPE concentration: 27^* nM
  16,17-DiHDPE concentration: 35 nM
  16-HDHA concentration: 8.1^* nM
  17(18)-EpETE concentration: 4.6 nM
  17,18-DiHETE concentration: 19 nM
  17-HDHA concentration: 25 nM
  18-HEPE concentration: 4.6 nM
  19(20)-EpDPE concentration: 40^* nM
  19,20-DiHDPE concentration: 170 nM
  20-HDHA concentration: 27^* nM
  20-HEPE concentration: 22 nM
  20-HETE concentration: 6.3 nM
  EKODE concentration: 40 nM
  PGD1 concentration: 2.3 nM
  PGD2 concentration: 42 nM
  PGE1 concentration: 3.7 nM
  PGE2 concentration: 21 nM
  PGF1α concentration: 6.9 nM
  TXB2 concentration: 31 nM
  TxB3 concentration: 1.2 nM
  dihomo-PGF2α concentration: 5.3 nM
[1]; mean (first listing, r6)
  PGF2α concentration: 57 nM
[1]; mean (second listing, r9)
  PGF2α concentration: 57 nM
[2]
  1a,1b-dihomo-PGF2α: 1.9 nM
  4,5-DiHDPE: 15 nM
  4-HDHA: 28^† nM
  5(6)-EpETrE: 140^† nM
  5,6-DiHETrE: 1.8^† nM
  5-HEPE: 1.3 nM
  5-HETE: 15^† nM
  5-oxo-ETE: 45 nM
  6-keto-PGF1α: 61 nM
  7,8-DiHDPE: 2.0^* nM
  7-HDHA: 4.0^* nM
  8(9)-EpETrE: 34^‡ nM
  8,9-DiHETrE: 1.9 nM
  8-HDHA: 23^‡ nM
  8-HETE: 4.9 nM
  8-iPF2a: 2.0 nM
  9(10)-EpODE: 14 nM
  9(10)-EpOME: 170^* nM
  9(10)-Epoxystearic acid: 75^* nM
  9,10,13-TriHOME: 4.3 nM
  9,10-DiHODE: 1.6 nM
  9,10-DiHOME: 31 nM
  9,10-Dihydroxystearic acid: 50 nM
  9,12,13-TriHOME: 24 nM
  9-HETE: 4.3^† nM
  9-HODE: 280 nM
  9-HOTrE: 5.0 nM
  9-oxo-ODE: 65 nM
  10(11)-EpDPE: 71^† nM
  10,11-DiHDPE: 2.4 nM
  10-HDHA: 4.3 nM
  11(12)-EpETE: 4.0 nM
  11(12)-EpETrE: 82^† nM
  11,12-DiHETrE: 2.8 nM
  11-HDHA: 7.7^† nM
  11-HETE: 18 nM
  12(13)-EpODE: 8.1^* nM
  12(13)-EpOME: 120^* nM
  12,13-DiHOME: 78 nM
  12-HEPE: 2.2 nM
  12-HETE: 21 nM
  13(14)-EpDPE: 56^† nM
  13,14-DiHDPE: 5.0 nM
  13,14-dihydro-15-keto-PGF2α: 3.1 nM
  13-HDHA: 9.1^* nM
  13-HODE: 230 nM
  13-HOTrE: 6.0 nM
  13-oxo-ODE: 11 nM
  14(15)-EpETE: 4.7^† nM
  14(15)-EpETrE: 57^* nM
  14,15-DiHETE: 1.1 nM
  14,15-DiHETrE: 8.5 nM
  14-HDHA: 14 nM
  15(16)-EpODE: 56^† nM
  15(S)-HETrE: 6.4 nM
  15,16-DiHODE: 26 nM
  15-HETE: 31^* nM
  15-oxo-ETE: 12^* nM
  16(17)-EpDPE: 52^† nM
  16,17-DiHDPE: 15 nM
  16-HDHA: 9.1 nM
  17(18)-EpETE: 5.7^† nM
  17,18-DiHETE: 4.4 nM
  17-HDHA: 22 nM
  18-HEPE: 2.0^* nM
  19(20)-EpDPE: 88^† nM
  19,20-DiHDPE: 100 nM
  20-HDHA: 25^* nM
  20-HEPE: 5.9 nM
  EKODE: 58 nM
  PGD2: 9.6 nM
  PGE1: 6.3 nM
  PGE2: 110 nM
  PGF1α: 3.7 nM
  PGF2α: 40 nM
  TXB2: 3.2^* nM
[2]; < = below LOQ
  5,6-DiHETE: < 0.25 nM
  5-iPF2α: < 1.0 nM
  8(9)-EpETE: 2.8^† nM
  12,13-DiHODE: < 2.0 nM
  13,14-dihydro-15-keto-PGE1: 0.5 nM
  20-HETE: < 2.7 nM
  PGD1: < 0.50 nM
[2]; second listing of PGF2α (r9)
  PGF2α: 40 nM
COX–2 protein
  COX-2 Expression, HCA-7 cell line: 100 μM:COX–2 ↓
COX–2 protein; listed as genistein
  COX-2 Expression, HCA-7 cell line: decreased COX–2 expression
COX–2
  PGE2 formation / levels, RAW 264.7 cells: reduced PGE2 formation
